Results on 13 substances are retold here after patent US9125413B1, “Nematicide composition comprising CED-4 peptide” (California State University Fresno, priority 2014, dated 2015).

This series relates to C. elegans nematodes at the L1 stage. Description: Nematicide efficacy of CED-4 peptides, 96-well incubation of C. elegans L1, viability by probe touch. Type of series: in vivo, Caenorhabditis elegans. The conditions noted are these: for Percentage % Alive / Percentage % Dead (mortality rate) / # of nematodes Alive in all combined successful experiments / # of nematodes Dead in all combined successful experiments: three days, about 37° C. The method, then: (§1) Assays were performed using 96-well plates. C. elegans nematodes at the L1 stage (refer to FIG. 1) were incubated in each of the 96 wells for three days at about 37° C. at about 0.8 mg/ml peptide concentration for each tested CED-4 peptide. Each of the selected CED-4 peptides were diluted in distilled water to 0.8 mg/ml peptide concentration. Nematodes—numbering between two nematodes and four nematodes—averaging about three nematodes were incubated in 100 μl of CED-4 peptide solution at about 0.8 mg/ml concentration in each well. After a three-day incubation period, the exposed C. elegans nematodes were checked for viability under a dissecting microscope.
The percentage of dead C. elegans from all of the successful experiments is also referred to as the “mortality rate.”
Each separate well containing nematodes was considered an independent trial experiment. A well in which all of the incubated nematodes were either clearly alive or clearly dead at the end of the incubation period was recorded as one successful experiment. A well in which some or all of the incubated nematodes could not clearly be determined as alive or dead at the end of the incubation period was recorded as one unsuccessful experiment. At a concentration of about 0.8 mg/ml, nine trial experiments were carried out for each of the twelve designed CED-4 peptides.
as §1, with “0.4” for “0.8”
Each separate well containing nematodes was considered an independent trial experiment. A well in which all of the incubated nematodes were either clearly alive or clearly dead at the end of the incubation period was recorded as one successful experiment. A well in which some or all of the incubated nematodes could not clearly be determined as alive or dead at the end of the incubation period was recorded as one unsuccessful experiment. At a concentration of about 0.4 mg/ml, eight trial experiments were carried out for each of the twelve designed CED-4 peptides.

Setting [1] is: peptide concentration of 0.4 mg/ml.
Where [2] appears, read: peptide concentration of 0.8 mg/ml.

As to H-ALLSGKRMPVLTFKI-OH [Peptide 10], where the note is “0.4 mg/ml”, the “Percentage % Alive” value amounted to 30% and the “Percentage % Dead (mortality rate)” value came to 70%. For the same substance, for the setting “0.8 mg/ml”, the “Percentage % Alive” value was 66.7% and the “Percentage % Dead (mortality rate)” value is reported as 33.3%.

For H-DLLRPVVIAPQFSRQ-OH [Peptide 2], under “0.4 mg/ml”, the “Percentage % Alive” value was found to be 92.3% and the “Percentage % Dead (mortality rate)” value came to 7.7%. Also, where the note is “0.8 mg/ml”, the “Percentage % Alive” value is listed as 0% and the “Percentage % Dead (mortality rate)” value came to 100%.

In the case of H-DVEISNAASQTCEFIEVTSLE-OH [Peptide 7], for the setting “0.4 mg/ml”, the “# of nematodes Alive in all combined successful experiments” value (from here on “# of nematodes Alive”) was found to be 19, the “# of nematodes Dead in all combined successful experiments” value (shortened to “# of nematodes Dead”) was 0, the “Percentage % Alive” value was 100% and the “Percentage % Dead (mortality rate)” value is 0%. Where the note is “0.8 mg/ml”, the “# of nematodes Alive” value was 18, the “# of nematodes Dead” value is listed as 0, the “Percentage % Alive” value is listed as 100% and the “Percentage % Dead (mortality rate)” value is listed as 0%. Further, the “nematicide efficacy” value under setting [1] is given as “not associated with a high number of dead nematodes”. Besides, under setting [2], the “nematicide efficacy” value is on record as “not associated with a high number of dead nematodes”.

As for H-FPKFMQLHQKFY-OH [Peptide 12], the “Percentage % Alive” value (0.4 mg/ml) amounted to 33.3%. Moreover, where the note is “0.8 mg/ml”, the “# of nematodes Alive” value was 0 and the “Percentage % Alive” value is given as 0%.

In the case of H-LVGVECITPYSYKSLAMALQR-OH [Peptide 9], where the note is “0.4 mg/ml”, the “# of nematodes Alive” value amounted to 18, the “# of nematodes Dead” value is 0, the “Percentage % Alive” value turned out to be 100% and the “Percentage % Dead (mortality rate)” value was 0%. Besides, under “0.8 mg/ml”, the “# of nematodes Alive” value is recorded as 8, the “# of nematodes Dead” value is reported as 0, the “Percentage % Alive” value came out at 100% and the “Percentage % Dead (mortality rate)” value was found to be 0%. Besides, the “nematicide efficacy” value under setting [1] was “not associated with a high number of dead nematodes”. Further, the “nematicide efficacy” value under setting [2] was “not associated with a high number of dead nematodes”.

On to “H-MMFFKSCEPKTFEKMAQLNNKLESR-OH [Peptide 8]”, for which, where the note is “0.4 mg/ml”, the “# of nematodes Alive” value is reported as 10, the “Percentage % Alive” value was found to be 90.90% and the “Percentage % Dead (mortality rate)” value was determined as 9.09%. In addition, under “0.8 mg/ml”, the “# of nematodes Alive” value was 2, the “# of nematodes Dead” value was determined as 0, the “Percentage % Alive” value is on record as 100% and the “Percentage % Dead (mortality rate)” value was found to be 0%. For the same substance, the “nematicide efficacy” value under setting [2] was “not associated with a high number of dead nematodes”.

Turning to H-QSHLADFLEDYIDFAINE-OH [Peptide 1], for the setting “0.4 mg/ml”, the “# of nematodes Alive” value worked out at 14, the “# of nematodes Dead” value turned out to be 0, the “Percentage % Alive” value is reported as 100% and the “Percentage % Dead (mortality rate)” value is reported as 0%. For the same substance, the “nematicide efficacy” value under setting [1] is given as “not associated with a high number of dead nematodes”. The “nematicide efficacy” value under setting [2] is recorded as “not associated with a high number of dead nematodes”.

As to H-RQMLDRKLLLGNVPKQMTC-OH [Peptide 3], under “0.4 mg/ml”, the “Percentage % Alive” value was 40% and the “Percentage % Dead (mortality rate)” value is on record as 60%. For the same substance, under “0.8 mg/ml”, the “# of nematodes Dead” value is 20, the “Percentage % Alive” value is 0% and the “Percentage % Dead (mortality rate)” value is listed as 100%.

With H-TCYIREYHVDRVI-OH [Peptide 4], the “Percentage % Alive” value reads like this: (0.4 mg/ml) 64.28%; (0.8 mg/ml) 50%.

Regarding H-TSVVLKRMICNALI-OH [Peptide 6], under “0.4 mg/ml”, the “# of nematodes Alive” value was 9, the “# of nematodes Dead” value was found to be 0, the “Percentage % Alive” value is 100% and the “Percentage % Dead (mortality rate)” value is recorded as 0%. For the same substance, where the note is “0.8 mg/ml”, the “# of nematodes Alive” value stood at 9, the “# of nematodes Dead” value is given as 0, the “Percentage % Alive” value was determined as 100% and the “Percentage % Dead (mortality rate)” value worked out at 0%. Further, the “nematicide efficacy” value under setting [1] is given as “not associated with a high number of dead nematodes”. Besides, the “nematicide efficacy” value under setting [2] is listed as “not associated with a high number of dead nematodes”.

Take H-VDAQTIANGISILEQRL-OH [Peptide 11]: for the setting “0.4 mg/ml”, the “# of nematodes Alive” value is 22, the “# of nematodes Dead” value amounted to 0, the “Percentage % Alive” value is given as 100% and the “Percentage % Dead (mortality rate)” value was found to be 0%. Further, for the setting “0.8 mg/ml”, the “Percentage % Alive” value was determined as 70% and the “Percentage % Dead (mortality rate)” value is listed as 30%. For the same substance, the “nematicide efficacy” value under setting [1] is reported as “not associated with a high number of dead nematodes”.

Turning to “NH3—ILLMLKSEDDLLNF-COOH (H-ILLMLKSEDDLLNF-OH) [Peptide 5, ID No. 1]”, the “nematicide efficacy” value by setting is: under setting [1], “not associated with a high number of dead nematodes”; under setting [2], “not associated with a high number of dead nematodes”.

As for “bovine serum albumin [BSA, reference compound]”, under “0.4 mg/ml”, the “# of nematodes Alive” value worked out at 21, the “# of nematodes Dead” value is recorded as 0 and the “Percentage % Alive” value amounted to 100%. Further, for the setting “0.8 mg/ml”, the “# of nematodes Alive” value worked out at 26, the “# of nematodes Dead” value is 0 and the “Percentage % Alive” value was found to be 100%.
